Experimental data taken from patent publication US4011328A, “Derivatives of pyridine-3-acetic acid, process for their preparation and applications thereof” (SERDEX - Societe d'Etudes, de Recherches, de Diffusion et …, priority 1973, dated 1977).

Tests used:
Type in all cases: in vivo
[1] = system: Turfyl nicotinate (Trafuril)-induced erythema; assay: Erythema with Turfyl nicotinate (Trafuril), anti-inflammatory power; settings: Cavia porcellus, po; male albino guinea-pigs; buccally 1 hour before test; result at the end of 5 minutes
Protocol: (§1) b. Anti-inflammatory power.
2. Erythema with Turfyl nicotinate(Trafuril).
The NAINING method is used (Br.jl.Pharmacol. 1963-21-104-12), slightly modified:
The test is carried out on homogeneous groups of six to 12 male albino guinea-pigs weighing 300-400 g, the skin of the back having been carefully plucked the day before.
On the day of the test an antibiogramme disc saturated with an alcoholic solution at 5% of Turfyl nicotinate is applied to the lumbar region for 1 minute.
The result is observed at the end of 5 minutes.
The results are recorded on an "all or nothing" basis, according to which an erythema appears at the place in which the disc was applied.
The treatment is administered buccally 1 hour before the test, with a uniform volume of 1 ml per kg of body weight; the products are placed in homogeneous suspension by the aid of 3% of gum arabic.
The pilot animals are given an equal volume of vehicle.
The percentage of erythema produced in the treated animals is compared with that of the pilot group observed at the same time.

[2] = system: 2-phenyl-1,4-benzoquinone-induced stretching of the rear feet and torsion of the trunk; assay: Siegmund test, analgesic power: phenylbenzoquinone-induced stretchings/torsions; settings: Mus musculus, ip; mice; substance given 1 hour before intraperitoneal phenylbenzoquinone; observed 5th-10th minute
Protocol: The intraperitoneal injection of 0.25 ml of a hydroalcoholic solution of 2-phenyl-1,4-benzoquinone at a concentration of 0.02% produces in mice a particular syndrom characterized by the stretching of the rear feet and the torsion of the trunk.
The test is carried out on homogeneous groups of 20 to 30 mice with an average weight of 20 g.
The substance to be studied is administered to them at the time "0." One hour later the phenylbenzoquinone is administered intraperitoneally. The animals are observed individually for 5 minutes, between the 5th and 10th minute following the injection of the phenyl benzoquinone. The number of stretchings performed by each animal during the observation period is noted.
The percentage of activity of the substance is calculated by comparing the number of torsions performed by the animals and those performed by pilot animals.

[3] = system: carragheen-induced localized oedema; assay: Acute oedema with carragheen, anti-inflammatory power; settings: Rattus norvegicus, po; male rats; buccally 1 hour before carragheen; oedema 3 hours after carragheen
Protocol: as §1
1. Acute oedema with carragheen.
(Winster C. A., Risley R. A., Nuss G. W. -- Proc.Soc.Biol. Med.1962,3,544-7).
The injection, under the arch of the rat's foot, of 0.05 ml of an aqueous gel with 1% carragheen produces a localized oedema which can be measured with an electric plethysmometer of the mercury type.
The percentage of inflammation can be calculated by measuring the volume of the […] foot before and 3 hours after the carragheen injection.
The treatment is given buccally, 1 hour before the carragheen.
The test is carried out on homogeneous groups of ten male rats of 180 ± 10 g.
For each animal the oedema is measured as follows: [formula]
When the percentage of oedema is known for the pilot group, the protection observed under the effect of the substance tested is deducted therefrom for the treated groups.

| Structure (SMILES) | ED50 [1] [mg/kg] | ED50 [2] [mg/kg] | ED50 [3] [mg/kg] |
| --- | --- | --- | --- |
| Cc1ccc2c(c1)-c1nc(C)c(CC(=O)O)cc1CO2 [Example 1] | 78 | 150 | 16 |
| COc1ccc(-c2nc(C)c(CC(=O)O)cc2-c2ccc(Cl)cc2)cc1 [Example 3] | 5.2 | 0.9 | 28 |
